According to publication PMC8708382, “Heterocyclic Cathinones as Inhibitors of Kynurenine Aminotransferase II—Design, Synthesis, and Evaluation” (Pharmaceuticals, 2021):

How the values were obtained:
[1] = tested on: KAT-II; conditions: published KAT-II inhibitors, Figure 2; cited from earlier work
[2] = target: T1, hKAT-II (Homo sapiens, UniProt Q8N5Z0); experiment: Coupled fluorescence in vitro inhibition assay of hKAT-II; format: biochemical; conditions: c = 1 µM; 30 min pre-incubation with enzyme; 20 nM hKAT-II; mean ± SEM
T1 construct: hexahistidine tag (N); made in house; host or cells: E. coli BL21(DE3)-RIL
T1 sequence (Q8N5Z0 30-425): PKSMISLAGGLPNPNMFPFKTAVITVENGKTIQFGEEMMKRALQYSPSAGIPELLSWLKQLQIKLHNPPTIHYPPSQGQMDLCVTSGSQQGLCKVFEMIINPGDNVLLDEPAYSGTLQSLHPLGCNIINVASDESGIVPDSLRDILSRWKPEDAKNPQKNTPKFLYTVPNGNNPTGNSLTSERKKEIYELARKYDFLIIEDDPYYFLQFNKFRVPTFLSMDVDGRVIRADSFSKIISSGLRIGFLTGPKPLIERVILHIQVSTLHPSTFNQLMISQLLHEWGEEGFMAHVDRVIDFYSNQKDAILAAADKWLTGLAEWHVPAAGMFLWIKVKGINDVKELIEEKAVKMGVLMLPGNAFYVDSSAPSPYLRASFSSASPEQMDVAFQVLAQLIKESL
Method: The inhibitory activity of amino ketones 11 and 12 was evaluated using a fluorimetric in vitro assay. The activity was determined as the percentage of inhibition (%I) at a concentration of 1 µmol/L and also as IC50 values (Table 1). The observed inhibitory activity confirmed the validity of the computational model and was suitable to conduct a synthesis-directed SAR study around the predicted heterocyclic α-amino ketone structure.
The nucleotide sequence encoding hKAT-II gene was constructed by Invitrogen, Thermo Fisher Scientific. The hKAT-II gene, optimized for heterologous expression in E. coli, was cloned into a pET15b vector using NdeI-XhoI. The hKAT-II protein, carrying an N-terminal hexahistidine tag, was produced in E.coli BL21(DE3)-RIL cells for 4 h at 37 °C. The bacterial cells were then harvested and disintegrated using One-Shot. […] (25.000× g, 30 min) centrifugation cleared cell lysate containing hKAT-II was loaded on the top of a HisTrap Fast Flow column (Cytiva) equilibrated in loading buffer (40 mM Tris, pH 8; 1000 mM NaCl, 40 µM PLP, 5 mM MgCl2, 20 mM imidazole). Following elution of the bound proteins by the loading buffer containing 600 mM imidazole, purified hKAT-II was dialyzed into a storage buffer (20 mM Hepes pH 7.5; 50 mM NaCl, 70 µM PLP, 10% glycerol), concentrated to 1.0–1.5 mg/mL, aliquoted, and stored at −80 °C.
hKAT-II activity was measured using a fluorescence assay utilizing L-α-aminoadipic acid (AAD) and α-ketoglutarate as the substrates as previously described. The assay medium (100 µL) consisted of 0.75 µM of hKAT-II, 0.3 mM of AAD, 50 µM α-ketoglutarate, 3 mM NAD^+, 88 µg/mL of glutamic dehydrogenase, and 5 µM pyridoxal phosphate (PLP) in a 0.1 M phosphate buffer pH 7.5. The activity of the enzyme was assessed on a Spark multiple mode reader (Tecan Group Ltd., Männedorf, Switzerland) with an excitation wavelength of 340 nm and emission wavelength of 390 nm at 37 °C. The plate was shaken for 20 s before reading. The kinetic interval was set at 30 s between each reading, and data were collected for 30 min. The activity of the enzyme was assayed in pentaplicate in each measurement (n = 3). Kinetic data were then collected over a period of 30 min, and the linear part of the initial velocity was used to calculate the enzyme activity expressed as the slope of the linearized curve via the linear regression function (Excel, Microsoft, USA).
The inhibitory activity of the tested compounds was determined via 30 min pre-incubation with the enzyme at various concentrations of the inhibitor at room temperature in a 0.1 M phosphate buffer pH 7.5 with 5 µM PLP. The enzyme reaction was initiated by the addition of a substrate and cofactors. The final mixture contained 20 nM of hKAT-II, 0.3 mM of AAD, 50 µM α-ketoglutarate, 3 mM NAD^+, and 88 µg/mL of glutamic dehydrogenase. Kinetic data were collected over a period of 30 min, and the slope of the linearized curve was calculated as above. The inhibitory activity in %I at a given concentration was calculated for novel compounds using the following equation:(1) Inhibition [%I]=(V0− Vi/V0)×100, where V0 and Vi are the activity of the enzyme in the absence and presence of the inhibitor, respectively. All the data were obtained in pentaplicate for each measurement (n = 3). Alternatively, the IC50 values for selected novel compounds were assessed. GraphPad Prism 8 software (San Diego, USA) was used for the IC50 value calculation using non-linear regression (four parameters). […]

In the case of `CC(C)[C@@H](Cc1nnc(NS(=O)(=O)c2cc(F)cc(F)c2)s1)c1cccc(F)c1` [Compound 9], the IC50 [1] is listed as 880 nM.

For `CC1(C)[C@@H](O)CC[C@]2(C)[C@H]3C(=O)C=C4[C@@H]5C[C@@](C)(C(=O)O)CC[C@]5(C)CC[C@@]4(C)[C@]3(C)CC[C@@H]12` [Compound 6, glycyrrhetinic acid], the IC50 [1] is given as 7000 nM.

For `CCS(=O)(=O)c1ccc(C(=O)C[C@H](N)C(=O)O)cc1` [Compound 1, (S)-ESBA], the IC50 [1] is given as 71000 nM.

For `NS(=O)(=O)c1ccc(N2C(=O)c3cc(Cl)c(Cl)cc3C2=O)cc1` [Compound 7], the IC50 [1] is given as 73800 nM.

For `O=C1NC(=O)/C(=C/c2cccc(-c3ccc4c5c3CCC(=O)N5CC4)c2)S1` [Compound 5, BFF-816], the IC50 [1] is listed as 13400 nM.

For `Cn1c(CN2CCOCC2)nc2sc([C@H]3CCCN3C(=O)OCc3ccccc3)nc2c1=O` [Compound 8], the IC50 [1] is listed as 610 nM.

In the case of `N[C@H]1Cc2cn(-c3ccccc3)nc2N(O)C1=O` [Compound 4], the IC50 [1] is listed as 25 nM.

For `C[C@H](N)C(=O)c1cn(Cc2ccccc2)nn1.Cl` [Compound 28a], the “Inhibitory Activity [%I ± SEM] c = 1 µM” value [2] was 14.54 ± 3.19 %I and the melting point was > 182 °C (dec.).

With `CC(C)[C@H](N)C(=O)c1cn(-c2ccccc2)nn1.Cl` [Compound 21a] the “Inhibitory Activity [%I ± SEM] c = 1 µM” value [2] was 10.32 ± 4.81 %I and the melting point was > 182 °C (dec.).

In the case of `C[C@H]1COc2c(N3CCN(N)CC3)c(F)cc3c(=O)c(C(=O)O)cn1c23` [Compound 2, BFF-122], the IC50 [1] is listed as 1000 nM.

With `Cc1ccc(-n2cc(C(=O)[C@H](C)N)nn2)cc1C` [Compound 26f] the “Inhibitory Activity [%I ± SEM] c = 1 µM” value [2] was 9.10 ± 2.07 %I and the melting point was > 170 °C (dec.).

For `COc1ccc(-n2cc(C(=O)[C@H](C)N)nn2)cc1` [Compound 26a], the “Inhibitory Activity [%I ± SEM] c = 1 µM” value [2] was 38.50 ± 2.21 %I and the melting point was > 180 °C (dec.).

For `N[C@H](C(=O)c1ncc(-c2ccccc2)s1)C1CC1` [Compound 25f], the “Inhibitory Activity [%I ± SEM] c = 1 µM” value [2] was 6.12 ± 2.66 %I and the melting point was > 165 °C (dec.).

With `COc1ccccc1-n1cc(C(=O)[C@H](C)N)nn1` [Compound 26c] the “Inhibitory Activity [%I ± SEM] c = 1 µM” value [2] was 23.41 ± 3.97 %I and the melting point was > 168 °C (dec.).

In the case of `Cc1ccc(NC(=O)N2CCCC3(CCC(=O)N(CCC(C)C)C3)C2)cc1Cl` (centres unmarked) [Compound 10], the IC50 [1] is listed as 810 nM.

With `C[C@H](N)C(=O)c1ncc(-c2ccc(F)cc2Cl)s1.Cl` [Compound 49c] the “Inhibitory Activity [%I ± SEM] c = 1 µM” value [2] was 47.65 ± 1.71 %I and the melting point was 127 to 134 °C (dec.).
